According to the supplement of paper PMC10307832:

Tests used:
Assay in all cases: relative viability (nuclei count vs DMSO), 5 days (fraction); higher = more cells survive
SK-LU-1 = test system: SK-LU-1
Summary of the method: (§1)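 Dosing by pin tool came one day after lung cancer cell lines were seeded in 1536-well plates, using either one drug or a fixed anchor-drug dose plus five library-drug doses (not always all listed) in √10 steps. After 5 days, nuclei were counted on 4× images. Relative viability is treated-well nuclei count divided by vehicle-well nuclei count, and values are medians of duplicate plates.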

NCI-H23 = test system: NCI-H23
Summary of the method: as §1

H3255 = test system: H3255
Summary of the method: as §1

NCI-H3122 = test system: NCI-H3122
Summary of the method: as §1

NCI-H2126 = test system: NCI-H2126
Summary of the method: as §1

ChaGo-K-1 = test system: ChaGo-K-1
Summary of the method: as §1

PC-3 [JPC-3] = test system: PC-3 [JPC-3]
Summary of the method: as §1

HOP-62 = test system: HOP-62
Summary of the method: as §1

HARA = test system: HARA
Summary of the method: as §1

COR-L 105 = test system: COR-L 105
Summary of the method: as §1

NCI-H2228 = test system: NCI-H2228
Summary of the method: as §1

NCI-H661 = test system: NCI-H661
Summary of the method: as §1

NCI-H596 = test system: NCI-H596
Summary of the method: as §1

NCI-H2405 = test system: NCI-H2405
Summary of the method: as §1

201T = test system: 201T
Summary of the method: as §1

NCI-H727 = test system: NCI-H727
Summary of the method: as §1

HCC-827 = test system: HCC-827
Summary of the method: as §1

LCLC-103H = test system: LCLC-103H
Summary of the method: as §1

NCI-H650 = test system: NCI-H650
Summary of the method: as §1

LOU-NH91 = test system: LOU-NH91
Summary of the method: as §1

NCI-H1975 = test system: NCI-H1975
Summary of the method: as §1

Cc1cn(-c2cc(NC(=O)c3ccc(C)c(Nc4nccc(-c5cccnc5)n4)c3)cc(C(F)(F)F)c2)cn1 [Nilotinib] + CC(C)C[C@H](NC(=O)[C@H](Cc1ccccc1)NC(=O)c1cnccn1)B(O)O [Bortezomib] (partner 0.002 µM)
relative viability (SK-LU-1; first compound 0.001 µM): 1.29 | relative viability (SK-LU-1; first compound 0.01 µM): 0.831 | relative viability (SK-LU-1; first compound 0.03162 µM): 1 | relative viability (SK-LU-1; first compound 0.1 µM): 0.949 | relative viability (NCI-H23; first compound 0.001 µM): 1.07 | relative viability (NCI-H23; first compound 0.003162 µM): 1.37 | relative viability (NCI-H23; first compound 0.01 µM): 1.4 | relative viability (NCI-H23; first compound 0.03162 µM): 0.73 | relative viability (NCI-H23; first compound 0.1 µM): 0.775 | relative viability (H3255; first compound 0.001 µM): 0.917 | relative viability (H3255; first compound 0.003162 µM): 0.656 | relative viability (H3255; first compound 0.01 µM): 0.986 | relative viability (H3255; first compound 0.03162 µM): 0.787 | relative viability (H3255; first compound 0.1 µM): 0.558 | relative viability (NCI-H3122; first compound 0.003162 µM): 1.05 | relative viability (NCI-H3122; first compound 0.03162 µM): 1.03 | relative viability (NCI-H3122; first compound 0.1 µM): 0.962 | relative viability (NCI-H2126; first compound 0.001 µM): 1.12 | relative viability (NCI-H2126; first compound 0.003162 µM): 1.18 | relative viability (NCI-H2126; first compound 0.01 µM): 1.08 | relative viability (NCI-H2126; first compound 0.03162 µM): 1.08 | relative viability (NCI-H2126; first compound 0.1 µM): 0.624 | relative viability (ChaGo-K-1; first compound 0.001 µM): 1.44 | relative viability (ChaGo-K-1; first compound 0.003162 µM): 1.05 | relative viability (ChaGo-K-1; first compound 0.01 µM): 1.14 | relative viability (ChaGo-K-1; first compound 0.03162 µM): 0.639 | relative viability (ChaGo-K-1; first compound 0.1 µM): 0.898 | relative viability (PC-3 [JPC-3]; first compound 0.001 µM): 0.848 | relative viability (PC-3 [JPC-3]; first compound 0.003162 µM): 0.88 | relative viability (PC-3 [JPC-3]; first compound 0.01 µM): 0.975 | relative viability (PC-3 [JPC-3]; first compound 0.03162 µM): 0.707 | relative viability (PC-3 [JPC-3]; first compound 0.1 µM): 0.46 | relative viability (HOP-62; first compound 0.001 µM): 0.706 | relative viability (HOP-62; first compound 0.003162 µM): 0.861 | relative viability (HOP-62; first compound 0.01 µM): 0.28 | relative viability (HOP-62; first compound 0.03162 µM): 0.576 | relative viability (HARA; first compound 0.001 µM): 1.17 | relative viability (HARA; first compound 0.003162 µM): 1.25 | relative viability (HARA; first compound 0.01 µM): 1.11 | relative viability (HARA; first compound 0.03162 µM): 1.15 | relative viability (HARA; first compound 0.1 µM): 0.859 | relative viability (COR-L 105; first compound 0.001 µM): 0.903 | relative viability (COR-L 105; first compound 0.01 µM): 0.812 | relative viability (COR-L 105; first compound 0.03162 µM): 0.601 | relative viability (COR-L 105; first compound 0.1 µM): 0.333 | relative viability (NCI-H2228; first compound 0.001 µM): 1.09 | relative viability (NCI-H2228; first compound 0.003162 µM): 1.23 | relative viability (NCI-H2228; first compound 0.01 µM): 1.21 | relative viability (NCI-H2228; first compound 0.03162 µM): 0.641 | relative viability (NCI-H2228; first compound 0.1 µM): 0.422 | relative viability (NCI-H661; first compound 0.001 µM): 0.752 | relative viability (NCI-H661; first compound 0.003162 µM): 0.831 | relative viability (NCI-H661; first compound 0.01 µM): 1.02 | relative viability (NCI-H661; first compound 0.03162 µM): 0.642 | relative viability (NCI-H661; first compound 0.1 µM): 0.815 | relative viability (NCI-H596; first compound 0.001 µM): 1.16 | relative viability (NCI-H596; first compound 0.003162 µM): 1.03 | relative viability (NCI-H596; first compound 0.01 µM): 1.18 | relative viability (NCI-H596; first compound 0.03162 µM): 1.21 | relative viability (NCI-H596; first compound 0.1 µM): 0.96 | relative viability (NCI-H2405; first compound 0.001 µM): 0.995 | relative viability (NCI-H2405; first compound 0.01 µM): 1.07 | relative viability (NCI-H2405; first compound 0.03162 µM): 0.762 | relative viability (NCI-H2405; first compound 0.1 µM): 0.553 | relative viability (201T; first compound 0.001 µM): 1.12 | relative viability (201T; first compound 0.003162 µM): 1.09 | relative viability (201T; first compound 0.01 µM): 1.08 | relative viability (201T; first compound 0.1 µM): 1.11 | relative viability (NCI-H727; first compound 0.001 µM): 0.848 | relative viability (NCI-H727; first compound 0.01 µM): 0.976 | relative viability (NCI-H727; first compound 0.03162 µM): 0.678 | relative viability (NCI-H727; first compound 0.1 µM): 0.484 | relative viability (HCC-827; first compound 0.003162 µM): 1.19 | relative viability (HCC-827; first compound 0.01 µM): 1.08 | relative viability (HCC-827; first compound 0.03162 µM): 1.07 | relative viability (HCC-827; first compound 0.1 µM): 1.06 | relative viability (LCLC-103H; first compound 0.001 µM): 1.08 | relative viability (LCLC-103H; first compound 0.003162 µM): 1.29 | relative viability (LCLC-103H; first compound 0.03162 µM): 1.15 | relative viability (LCLC-103H; first compound 0.1 µM): 0.909 | relative viability (NCI-H650; first compound 0.001 µM): 0.754 | relative viability (NCI-H650; first compound 0.003162 µM): 0.76 | relative viability (NCI-H650; first compound 0.01 µM): 0.923 | relative viability (NCI-H650; first compound 0.03162 µM): 0.794 | relative viability (NCI-H650; first compound 0.1 µM): 0.714 | relative viability (LOU-NH91; first compound 0.001 µM): 0.523 | relative viability (LOU-NH91; first compound 0.003162 µM): 0.46 | relative viability (LOU-NH91; first compound 0.01 µM): 0.404 | relative viability (LOU-NH91; first compound 0.03162 µM): 0.473 | relative viability (LOU-NH91; first compound 0.1 µM): 0.524 | relative viability (NCI-H1975; first compound 0.001 µM): 0.32 | relative viability (NCI-H1975; first compound 0.003162 µM): 0.315 | relative viability (NCI-H1975; first compound 0.01 µM): 0.268 | relative viability (NCI-H1975; first compound 0.03162 µM): 0.279 | relative viability (NCI-H1975; first compound 0.1 µM): 0.171
